According to patent US20240254118A1, “PRMT5 INHIBITORS AND USES THEREOF” (Gilead Sciences, Inc., priority 2022, published 2024):

Key:
[1] = tested on: SDMA signal (PRMT5 inhibition) in HCT116 MTAP-deleted cells; assay: Symmetric di-methyl arginine image-based high content screen assay (SDMA assay), HCT116 MTAP-deleted; assay type: cell-based; details: SDMA assay; for EC50: Homo sapiens, HCT-116, 72 h, 3 days of treatment, cell line not given, taken as HCT116 MTAP-deleted, read-out: EC50 (SDMA assay); for EC50 selectivity (SDMA assay): taken as HCT116 WT versus MTAP-deleted
Procedure, shortened: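 HCT116 MTAP-deleted cells treated with compound until Day 3, then formalin-fixed, permeabilized and immunostained for SDMA, with DAPI nuclear counterstain. Imaged by high-content microscopy; SDMA read-out is mean Alexa 488 intensity per DAPI-defined cell, reflecting PRMT5 inhibition.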

[2] = tested on: HCT116 MTAP-deleted cells; assay: Cell viability assay (CellTiter-Glo, 7 days), HCT116 MTAP-deleted; details: Homo sapiens, HCT-116, 168 h

EC50 [1] [nM] | EC50 selectivity (SDMA assay) [1] | SMILES | CC50 [2] [nM]
1 to 5 | 86 | Cc1scnc1C(=O)N(C)N(Cc1ccc(C(F)(F)F)cn1)C(=O)c1ccc2nc(N)c3cnn(C)c3c2c1 [Example 226, N′-(4-amino-1-methyl-1H-pyrazolo[4,3-c]quinoline-8-carbonyl)-N,5-dimethyl-N′-((5-(trifluoromethyl)pyridin-2-yl)methyl)thiazole-4-carbohydrazide] | < 100
1 to 5 | 205 | CC(=O)N(C)N(Cc1ccc(C2CC2)nc1F)C(=O)c1ccc2nc(N)c3cnn(C)c3c2c1 [Example 228, N′-acetyl-4-amino-N-((6-cyclopropyl-2-fluoropyridin-3-yl)methyl)-N′,1-dimethyl-1H-pyrazolo[4,3-c]quinoline-8-carbohydrazide] | < 100
1 to 5 | 43 | CC(=O)N(C)N(Cc1ccc(-c2ccc(C(F)(F)F)nc2)cc1F)C(=O)c1ccc2nc(N)c3cnn(C)c3c2c1 [Example 229, N′-acetyl-4-amino-N-(2-fluoro-4-(6-(trifluoromethyl)pyridin-3-yl)benzyl)-N′,1-dimethyl-1H-pyrazolo[4,3-c]quinoline-8-carbohydrazide] | < 100
< 1 | 228 | CN(C(=O)C1CC1)N(Cc1ccc(-c2cnn(C(F)(F)F)c2)cc1F)C(=O)c1ccc2nc(N)c3cnn(C)c3c2c1 [Example 230, 4-amino-N′-(cyclopropanecarbonyl)-N-(2-fluoro-4-(1-(trifluoromethyl)-1H-pyrazol-4-yl)benzyl)-N′,1-dimethyl-1H-pyrazolo[4,3-c]quinoline-8-carbohydrazide] | < 100
1 to 5 | 18 | CC(=O)N(C)N(Cc1ccc(-c2ccc(C(F)(F)F)cc2)cc1F)C(=O)c1ccc2nc(N)c3cnn(C)c3c2c1 [Example 231, N′-acetyl-4-amino-N-((3-fluoro-4′-(trifluoromethyl)-[1,1′-biphenyl]-4-yl)methyl)-N′,1-dimethyl-1H-pyrazolo[4,3-c]quinoline-8-carbohydrazide] | < 100
1 to 5 | 298 | CC(=O)N(C)N(Cc1ccc(C2CC2)nc1)C(=O)c1ccc2nc(N)c3cnn(C)c3c2c1 [Example 232, N′-acetyl-4-amino-N-((6-cyclopropylpyridin-3-yl)methyl)-N′,1-dimethyl-1H-pyrazolo[4,3-c]quinoline-8-carbohydrazide] | < 100
< 1 | 89 | CC(=O)N(C)N(Cc1ccc(-c2cnsc2)cc1F)C(=O)c1ccc2nc(N)c3cnn(C)c3c2c1 [Example 233, N′-acetyl-4-amino-N-(2-fluoro-4-(isothiazol-4-yl)benzyl)-N′,1-dimethyl-1H-pyrazolo[4,3-c]quinoline-8-carbohydrazide] | < 100
< 1 | 39 | CC(=O)N(C)N(Cc1ccc(-c2ccns2)cc1F)C(=O)c1ccc2nc(N)c3cnn(C)c3c2c1 [Example 234, N′-acetyl-4-amino-N-(2-fluoro-4-(isothiazol-5-yl)benzyl)-N′,1-dimethyl-1H-pyrazolo[4,3-c]quinoline-8-carbohydrazide] | < 100
1 to 5 | 259 | CN(C(=O)C1CC1)N(Cc1ccc(F)cc1)C(=O)c1ccc2nc(N)c3cnn(C)c3c2c1 [Example 235, 4-amino-N′-(cyclopropanecarbonyl)-N-(4-fluorobenzyl)-N′,1-dimethyl-1H-pyrazolo[4,3-c]quinoline-8-carbohydrazide] | < 100
< 1 | 203 | CC(=O)N(C)N(Cc1ccc(-c2cnn(C3CC3)c2)cc1F)C(=O)c1ccc2nc(N)c3cnn(C)c3c2c1 [Example 236, N′-acetyl-4-amino-N-(4-(1-cyclopropyl-1H-pyrazol-4-yl)-2-fluorobenzyl)-N′,1-dimethyl-1H-pyrazolo[4,3-c]quinoline-8-carbohydrazide] | < 100
< 1 | 77 | CN(C(=O)C1CC1)N(Cc1ccc(-c2cnn(C(F)F)c2)cc1F)C(=O)c1ccc2nc(N)c3cnn(C)c3c2c1 [Example 238, 4-amino-N′-(cyclopropanecarbonyl)-N-(4-(1-(difluoromethyl)-1H-pyrazol-4-yl)-2-fluorobenzyl)-N′,1-dimethyl-1H-pyrazolo[4,3-c]quinoline-8-carbohydrazide] | < 100
< 1 | 95 | CN(C(=O)C1CC1)N(Cc1ccc(-c2cnsc2)cc1F)C(=O)c1ccc2nc(N)c3cnn(C)c3c2c1 [Example 240, 4-amino-N′-(cyclopropanecarbonyl)-N-(2-fluoro-4-(isothiazol-4-yl)benzyl)-N′,1-dimethyl-1H-pyrazolo[4,3-c]quinoline-8-carbohydrazide] | < 100
< 1 | 77 | CC(=O)N(C)N(Cc1ccc(-c2cnn(C(F)F)c2)cc1F)C(=O)c1ccc2nc(N)c3cnn(C)c3c2c1 [Example 242, N′-acetyl-4-amino-N-(4-(1-(difluoromethyl)-1H-pyrazol-4-yl)-2-fluorobenzyl)-N′,1-dimethyl-1H-pyrazolo[4,3-c]quinoline-8-carbohydrazide] | < 100
< 1 | 171 | CC(=O)N(C)N(Cc1ccc(-c2ccnn2C)cc1F)C(=O)c1ccc2nc(N)c3cnn(C)c3c2c1 [Example 243, N′-acetyl-4-amino-N-(2-fluoro-4-(1-methyl-1H-pyrazol-5-yl)benzyl)-N′,1-dimethyl-1H-pyrazolo[4,3-c]quinoline-8-carbohydrazide] | < 100
< 1 | 109 | CC(=O)N(C)N(Cc1ccc(-c2ccnn2C(F)(F)F)cc1F)C(=O)c1ccc2nc(N)c3cnn(C)c3c2c1 [Example 244, N′-acetyl-4-amino-N-(2-fluoro-4-(1-(trifluoromethyl)-1H-pyrazol-5-yl)benzyl)-N′,1-dimethyl-1H-pyrazolo[4,3-c]quinoline-8-carbohydrazide] | < 100
1 to 5 | 288 | CN(C(=O)C12CC(C1)C2)N(Cc1ccc(C(F)(F)F)nn1)C(=O)c1cc2c(cc1F)nc(N)c1cnn(C)c12 [Example 246, 4-amino-N′-(bicyclo[1.1.1]pentane-1-carbonyl)-7-fluoro-N′, 1-dimethyl-N-((6-(trifluoromethyl)pyridazin-3-yl)methyl)-1H-pyrazolo[4,3-c]quinoline-8-carbohydrazide] | 100 to 1000
1 to 5 | 536 | CN(C(=O)C12CC(C1)C2)N(Cc1ccc(C(F)(F)F)nn1)C(=O)c1ccc2nc(N)c3cnn(C)c3c2c1 [Example 248, 4-amino-N′-(bicyclo[1.1.1]pentane-1-carbonyl)-N′,1-dimethyl-N-((6-(trifluoromethyl)pyridazin-3-yl)methyl)-1H-pyrazolo[4,3-c]quinoline-8-carbohydrazide] | 100 to 1000
< 1 | 193 | CC(=O)N(C)N(Cc1ccc(-c2ccn(C(F)(F)F)n2)cc1F)C(=O)c1ccc2nc(N)c3cnn(C)c3c2c1 [Example 249, N′-acetyl-4-amino-N-(2-fluoro-4-(1-(trifluoromethyl)-1H-pyrazol-3-yl)benzyl)-N′,1-dimethyl-1H-pyrazolo[4,3-c]quinoline-8-carbohydrazide] | < 100
< 1 | 153 | CC(=O)N(C)N(Cc1ccc(-c2csc(C(F)(F)F)n2)cc1F)C(=O)c1ccc2nc(N)c3cnn(C)c3c2c1 [Example 250, N′-acetyl-4-amino-N-(2-fluoro-4-(2-(trifluoromethyl)thiazol-4-yl)benzyl)-N′,1-dimethyl-1H-pyrazolo[4,3-c]quinoline-8-carbohydrazide] | < 100
< 1 | 28 | COC(=O)N(C)N(Cc1ccc(C(F)(F)F)cn1)C(=O)c1ccc2nc(N)c3cnn(C)c3c2c1 [Example 253, methyl 2-(4-amino-1-methyl-1H-pyrazolo[4,3-c]quinoline-8-carbonyl)-1-methyl-2-((5-(trifluoromethyl)pyridin-2-yl)methyl)hydrazine-1-carboxylate] | < 100
< 1 | 266 | [2H]C([2H])(c1ccc(C(F)(F)F)cn1)N(C(=O)c1ccc2nc(N)c3cnn(C([2H])([2H])[2H])c3c2c1)N(C)C(=O)C1CC1 [Example 254, 4-amino-N′-(cyclopropanecarbonyl)-N′-methyl-1-(methyl-d3)-N-((5-(trifluoromethyl)pyridin-2-yl)methyl-d2)-1H-pyrazolo[4,3-c]quinoline-8-carbohydrazide] | < 100
< 1 | 51 | CN(C(=O)[C@H]1C[C@@H]1F)N(Cc1ccc(C(F)(F)F)cn1)C(=O)c1ccc2nc(N)c3cnn(C)c3c2c1 [Example 255, 4-amino-N′-((1R,2S)-2-fluorocyclopropane-1-carbonyl)-N′,1-dimethyl-N-((5-(trifluoromethyl)pyridin-2-yl)methyl)-1H-pyrazolo[4,3-c]quinoline-8-carbohydrazide] | < 100
< 1 | 130 | [2H]C([2H])(c1ccc(C(F)(F)F)cn1)N(C(=O)c1ccc2nc(N)c3cnn(C)c3c2c1)N(C)C(=O)C1CC1 [Example 256, 4-amino-N′-(cyclopropanecarbonyl)-N′,1-dimethyl-N-((5-(trifluoromethyl)pyridin-2-yl)methyl-d2)-1H-pyrazolo[4,3-c]quinoline-8-carbohydrazide] | < 100
